Like-named read-outs stand apart in the source and are kept apart here.
Test system: TNFα secretion from PMA/ionomycin stimulated white blood cells from human buffy coat
Experiment: TNFα secretion assay, PMA/ionomycin stimulation
Procedure: Various concentrations of each test compound were added at the time of stimulation. […] After the plate was washed with 0.1% Tween 20/PBS, an HRP-luminescent substrate was added to each well and light intensity measured using a LJL Analyst plate luminometer.

Work on `C[C@H]1C[C@H]2[C@@H]3CCC4=CC(=O)C=C[C@]4(C)[C@@]3(F)[C@@H](O)C[C@]2(C)[C@@]1(O)C(=O)CO` [Betamethasone] yielded an inhibition at […] (read-out: inhibition of TNFα secretion, Betamethasone 38 nM, Imipramine nM: 0, 99, 394, 1578, 6311, 25000) of 35.8%, an inhibition at […] (read-out: inhibition of TNFα secretion, Betamethasone 38 nM, Nortriptyline nM: 0, 52, 208, 834, 3336, 13000) of 9.93% and an inhibition at 2.434 µM (read-out: inhibition of TNFα secretion, Betamethasone 2434 nM, Nortriptyline nM: 0, 52, 208, 834, 3336, 13000) of 38.9%. The inhibition at […] (read-out: percent inhibition of TNFα secretion, Betamethasone 38 nM, Amoxapine nM: 0, 12, 50, 199, 797, 3187) was 26.3%, the inhibition at […] (read-out: percent inhibition of TNFα secretion, Betamethasone 38 nM, Clomipramine nM: 0, 45, 178, 712, 2848, 11000) was 36% and the inhibition at […] (read-out: percent inhibition of TNFα secretion, Betamethasone 38 nM, Desipramine nM: 0, 50, 200, 799, 3197, 13000) was 17.3%. The inhibition at 2.434 µM (read-out: percent inhibition of TNFα secretion, Betamethasone 2434 nM, Desipramine nM: 0, 50, 200, 799, 3197, 13000) was 48.9%.
`CC(=O)OCC(=O)[C@@]1(OC(C)=O)[C@@H](C)C[C@H]2[C@@H]3C[C@H](F)C4=CC(=O)C=C[C@]4(C)[C@@]3(F)[C@@H](O)C[C@@]21C` [Diflorasone Diacetate] was tested, and the inhibition at 0.03 µM (read-out: inhibition of TNFα secretion, Diflorasone Diacetate 30 nM, Desipramine nM: 0, 50, 200, 799, 3197, 13000) was 25.4%, the inhibition at 0.03 µM (read-out: inhibition of TNFα secretion, Diflorasone Diacetate 30 nM, Imipramine nM: 0, 99, 394, 1578, 6311, 25000) was 29.6% and the inhibition at 0.03 µM (read-out: inhibition of TNFα secretion, Diflorasone Diacetate 30 nM, Protriptyline nM: 0, 52, 208, 834, 3336, 13000) was 28.2%. It also gave an inhibition at 1.941 µM (read-out: inhibition of TNFα secretion, Diflorasone Diacetate 1941 nM, Desipramine nM: 0, 50, 200, 799, 3197, 13000) of 46.9%, an inhibition at 1.941 µM (read-out: inhibition of TNFα secretion, Diflorasone Diacetate 1941 nM, Imipramine nM: 0, 99, 394, 1578, 6311, 25000) of 45.8% and an inhibition at 1.941 µM (read-out: inhibition of TNFα secretion, Diflorasone Diacetate 1941 nM, Protriptyline nM: 0, 52, 208, 834, 3336, 13000) of 45.3%. It also gave an inhibition at 0.03 µM (read-out: percent inhibition of TNFα secretion, Diflorasone Diacetate 30 nM, Amitriptyline nM: 0, 50, 199, 796, 3186, 13000) of 26.1%, an inhibition at […] (read-out: percent inhibition of TNFα secretion, Diflorasone Diacetate 38 nM, Clomipramine nM by grid row: r5 0, r6 12, r7 50, r8 199, r9 797, r10 3187) of 43.2% and an inhibition at 1.941 µM (read-out: percent inhibition of TNFα secretion, Diflorasone Diacetate 1941 nM, Amitriptyline nM: 0, 50, 199, 796, 3186, 13000) of 45.2%.
Compound `C[C@]12C=CC(=O)C=C1CC[C@H]1[C@@H]3C[C@@H](O)[C@](O)(C(=O)CO)[C@@]3(C)C[C@H](O)[C@@]12F` [Triamcinolone, triamcinolone] has an inhibition at […] (read-out: inhibition of TNFα secretion, Triamcinolone 38 nM, Desipramine nM: 0, 50, 200, 799, 3197, 13000) of 16%, an inhibition at […] (read-out: inhibition of TNFα secretion, Triamcinolone 38 nM, Imipramine nM: 0, 99, 394, 1578, 6311, 25000) of 16.1% and an inhibition at […] (read-out: inhibition of TNFα secretion, Triamcinolone 38 nM, Nortriptyline nM: 0, 52, 208, 834, 3336, 13000) of 7.21%. It also gave an inhibition at 2.434 µM (read-out: inhibition of TNFα secretion, Triamcinolone 2434 nM, Desipramine nM: 0, 50, 200, 799, 3197, 13000) of 47.1%, an inhibition at 2.434 µM (read-out: inhibition of TNFα secretion, Triamcinolone 2434 nM, Imipramine nM: 0, 99, 394, 1578, 6311, 25000) of 47.2% and an inhibition at 2.434 µM (read-out: inhibition of TNFα secretion, Triamcinolone 2434 nM, Nortriptyline nM: 0, 52, 208, 834, 3336, 13000) of 33.7%. It also gave an inhibition at 2.434 µM (read-out: inhibition of TNFα secretion, Triamcinolone 2434 nM, Protriptyline nM: 0, 52, 208, 834, 3336, 13000) of 48.5%, an inhibition at […] (read-out: percent inhibition of TNFα secretion, Triamcinolone 38 nM, Amitriptyline nM: 0, 50, 199, 796, 3186, 13000) of 10.8% and an inhibition at […] (read-out: percent inhibition of TNFα secretion, Triamcinolone 38 nM, Amoxapine nM: 0, 12, 50, 199, 797, 3187) of 3.52%. The inhibition at […] (read-out: percent inhibition of TNFα secretion, Triamcinolone 38 nM, Clomipramine nM: 0, 45, 178, 712, 2848, 11000) was 12.5%, the inhibition at 2.434 µM (read-out: percent inhibition of TNFα secretion, Triamcinolone 2434 nM, Amitriptyline nM: 0, 50, 199, 796, 3186, 13000) was 43.8% and the inhibition at 2.434 µM (read-out: percent inhibition of TNFα secretion, Triamcinolone 2434 nM, Amoxapine nM: 0, 12, 50, 199, 797, 3187) was 36.1%. It also gave an inhibition at 2.434 µM (read-out: percent inhibition of TNFα secretion, Triamcinolone 2434 nM, Clomipramine nM: 0, 45, 178, 712, 2848, 11000) of 46.9%.
`CCCC1O[C@@H]2C[C@H]3[C@@H]4CCC5=CC(=O)C=C[C@]5(C)[C@H]4[C@@H](O)C[C@]3(C)[C@]2(C(=O)CO)O1` (stereo partly drawn) [Budesonide, budesonide] was tested, and the inhibition at […] (read-out: inhibition of TNFα secretion, Budesonide 35 nM, Imipramine nM: 0, 99, 394, 1578, 6311, 25000) was 42.1%, the inhibition at […] (read-out: inhibition of TNFα secretion, Budesonide 35 nM, Nortriptyline nM: 0, 52, 208, 834, 3336, 13000) was 36% and the inhibition at […] (read-out: inhibition of TNFα secretion, Budesonide 35 nM, Protriptyline nM: 0, 52, 208, 834, 3336, 13000) was 44.5%. For the same compound, the inhibition at […] (read-out: percent inhibition of TNFα secretion, Budesonide 35 nM, Amitriptyline nM: 0, 50, 199, 796, 3186, 13000) was 42%, the inhibition at […] (read-out: percent inhibition of TNFα secretion, Budesonide 35 nM, Amoxapine nM: 0, 12, 50, 199, 797, 3187) was 36.7% and the inhibition at […] (read-out: percent inhibition of TNFα secretion, Budesonide 35 nM, Clomipramine nM: 0, 45, 178, 712, 2848, 11000) was 45.3%. For the same compound, the inhibition at […] (read-out: percent inhibition of TNFα secretion, Budesonide 35 nM, Desipramine nM: 0, 50, 200, 799, 3197, 13000) was 48.1%.
With `C[C@@H]1C[C@H]2[C@@H]3CCC4=CC(=O)C=C[C@]4(C)[C@@]3(F)[C@@H](O)C[C@]2(C)[C@@]1(O)C(=O)CO` [Dexamethasone, dexamethasone] the inhibition at […] (read-out: inhibition of TNFα secretion, Dexamethasone 38 nM, Desipramine nM: 0, 50, 200, 799, 3197, 13000) was 31.3%, the inhibition at […] (read-out: inhibition of TNFα secretion, Dexamethasone 38 nM, Imipramine nM: 0, 99, 394, 1578, 6311, 25000) was 30% and the inhibition at […] (read-out: inhibition of TNFα secretion, Dexamethasone 38 nM, Nortriptyline nM: 0, 52, 208, 834, 3336, 13000) was 31%. The inhibition at […] (read-out: percent inhibition of TNFα secretion, Dexamethasone 38 nM, Amitriptyline nM: 0, 50, 199, 796, 3186, 13000) was 31.1%, the inhibition at […] (read-out: percent inhibition of TNFα secretion, Dexamethasone 38 nM, Amoxapine nM: 0, 12, 50, 199, 797, 3187) was 32% and the inhibition at […] (read-out: percent inhibition of TNFα secretion, Dexamethasone 38 nM, Clomipramine nM: 0, 45, 178, 712, 2848, 11000) was 35.6%.

Reference: patent US20090075951A1, “Methods and Reagents for the Treatment of Inflammatory Disorders” (CombinatoRx, Inc., priority 2003, published 2009)
